Measurements: ChEMBL document CHEMBL6120940, “Discovery of N-Aryl-N'-[4-(aryloxy)cyclohexyl]squaramide-Based Inhibitors of LXR/SREBP-1c Signaling Pathway Ameliorating Steatotic Liver Disease: Navigating the Role of SIRT6 Activation” (J Med Chem, 2024)

Experiments:
[1] = Metabolic stability in mouse liver microsomes at 1 uM measured after 30 mins in presence of NADPH regeneration system by LC-MS/MS analysis; assay type: ADME, Microsome; settings: read-out: Stability
[2] = Stability in mouse plasma measured after 120 mins by LC-MS/MS analysis; assay type: ADME, cell-free; settings: read-out: Stability
[3] = biological target: Voltage-gated inwardly rectifying potassium channel KCNH2 (Homo sapiens, UniProt Q12809); experiment: Inhibition of human ERG expressing HEK cells by whole-cell patch clamp assay; assay type: toxicity, cell-based
[4] = Stability in rat plasma measured after 120 mins by LC-MS/MS analysis; assay type: ADME, cell-free; settings: read-out: Stability
[5] = Metabolic stability in human liver microsomes at 1 uM measured after 30 mins in presence of NADPH regeneration system by LC-MS/MS analysis; assay type: ADME, Microsome; settings: read-out: Stability
[6] = Metabolic stability in rat liver microsomes at 1 uM measured after 30 mins in presence of NADPH regeneration system by LC-MS/MS analysis; assay type: ADME, Microsome; settings: read-out: Stability
[7] = biological target: CYP2C19 (Homo sapiens, UniProt P33261); experiment: Inhibition of CYP2C19 in human liver microsomes at 10 uM using S-mephenytoin as substrate preincubated for 5 mins followed by NADPH generating system addition and measured after 15 mins relative to control; assay type: ADME, Microsome; settings: probe S-mephenytoin, time 20 min
[8] = biological target: CYP2C9 (Homo sapiens, UniProt P11712); experiment: Inhibition of CYP2C9 in human liver microsomes at 10 uM using diclofenac as substrate preincubated for 5 mins followed by NADPH generating system addition and measured after 15 mins relative to control; assay type: ADME, Microsome; settings: probe diclofenac, time 20 min
[9] = biological target: T1, CYP1A2 (Homo sapiens, UniProt P05177); experiment: Inhibition of CYP1A2 in human liver microsomes at 10 uM using phenacetin as substrate preincubated for 5 mins followed by NADPH generating system addition and measured after 15 mins relative to control; assay type: ADME, Microsome; settings: probe phenacetin, time 20 min
T1 sequence (P05177 whole entry): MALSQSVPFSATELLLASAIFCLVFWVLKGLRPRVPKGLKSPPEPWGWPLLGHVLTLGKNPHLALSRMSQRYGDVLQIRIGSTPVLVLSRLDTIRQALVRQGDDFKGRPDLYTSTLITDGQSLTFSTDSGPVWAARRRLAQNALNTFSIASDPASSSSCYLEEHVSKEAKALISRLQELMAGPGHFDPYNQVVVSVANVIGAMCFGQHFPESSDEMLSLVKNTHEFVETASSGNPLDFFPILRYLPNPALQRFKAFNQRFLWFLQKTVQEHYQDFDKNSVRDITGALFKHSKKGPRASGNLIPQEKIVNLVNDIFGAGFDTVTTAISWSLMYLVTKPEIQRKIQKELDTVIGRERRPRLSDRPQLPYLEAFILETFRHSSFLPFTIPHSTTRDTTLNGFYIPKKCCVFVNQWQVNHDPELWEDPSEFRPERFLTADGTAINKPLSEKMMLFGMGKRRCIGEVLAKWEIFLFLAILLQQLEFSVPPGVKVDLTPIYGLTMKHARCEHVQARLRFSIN

[10] = Downregulation of SREBP-1c mRNA expression in human HepG2 cells at 10 uM pretreated with compound for 30 mins followed by T0901317 addition and measured after 12 hrs by RT-qPCR analysis relative to control; assay type: functional; settings: time 12.5 hrs
[11] = biological target: CYP3A4 (Homo sapiens, UniProt P08684); experiment: Inhibition of CYP3A4 in human liver microsomes at 10 uM using midazolam as substrate preincubated for 5 mins followed by NADPH generating system addition and measured after 15 mins relative to control; assay type: ADME, Microsome; settings: probe midazolam, time 20 min
[12] = biological target: T2, Sterol regulatory element-binding protein 1 (Homo sapiens) (UniProt P36956); experiment: Inhibition of SREBP-1c transcriptional activity in human HepG2 cells expressing LXRalpha/RXRalpha assessed as reduction in SRE-luciferase level at 10 uM pretreated with compound for 30 mins followed by T0901317 addition and measured after 12 hrs by Dual-Glo luciferase assay relative to control; assay type: cell-based; settings: time 12.5 hrs
T2 sequence (whole entry): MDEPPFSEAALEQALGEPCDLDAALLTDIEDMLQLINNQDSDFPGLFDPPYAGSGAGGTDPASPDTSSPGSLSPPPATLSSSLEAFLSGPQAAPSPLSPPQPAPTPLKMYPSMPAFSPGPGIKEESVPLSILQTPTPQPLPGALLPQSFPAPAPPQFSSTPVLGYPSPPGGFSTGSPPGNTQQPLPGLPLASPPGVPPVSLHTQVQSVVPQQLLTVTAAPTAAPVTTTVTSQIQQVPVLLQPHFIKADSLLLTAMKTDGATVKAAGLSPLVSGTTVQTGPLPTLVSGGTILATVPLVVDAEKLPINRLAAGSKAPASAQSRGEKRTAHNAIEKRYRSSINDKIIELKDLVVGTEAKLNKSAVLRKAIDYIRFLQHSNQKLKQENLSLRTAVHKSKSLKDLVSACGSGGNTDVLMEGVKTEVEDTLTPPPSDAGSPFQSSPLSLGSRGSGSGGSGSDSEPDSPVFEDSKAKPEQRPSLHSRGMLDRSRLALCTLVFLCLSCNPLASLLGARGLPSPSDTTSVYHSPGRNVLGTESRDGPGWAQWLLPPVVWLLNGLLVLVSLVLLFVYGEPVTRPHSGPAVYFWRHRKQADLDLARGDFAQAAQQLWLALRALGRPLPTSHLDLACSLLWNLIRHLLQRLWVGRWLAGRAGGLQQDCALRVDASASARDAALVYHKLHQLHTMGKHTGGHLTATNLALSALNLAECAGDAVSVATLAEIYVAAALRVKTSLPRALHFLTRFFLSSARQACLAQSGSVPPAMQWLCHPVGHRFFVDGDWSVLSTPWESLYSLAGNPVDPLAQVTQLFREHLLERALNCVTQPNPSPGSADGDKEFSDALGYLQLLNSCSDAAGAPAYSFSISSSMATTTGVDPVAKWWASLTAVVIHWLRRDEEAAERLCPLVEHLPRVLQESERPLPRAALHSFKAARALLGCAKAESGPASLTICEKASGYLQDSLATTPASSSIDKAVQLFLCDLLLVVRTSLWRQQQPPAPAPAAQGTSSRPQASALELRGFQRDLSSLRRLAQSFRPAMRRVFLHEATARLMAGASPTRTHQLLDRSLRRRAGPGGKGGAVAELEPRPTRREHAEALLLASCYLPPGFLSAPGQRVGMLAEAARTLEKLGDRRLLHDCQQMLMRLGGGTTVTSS

[13] = biological target: CYP2D6 (Homo sapiens, UniProt P10635); experiment: Inhibition of CYP2D6 in human liver microsomes at 10 uM using dextromethorphan as substrate preincubated for 5 mins followed by NADPH generating system addition and measured after 15 mins relative to control; assay type: ADME, Microsome; settings: probe dextromethorphan, time 20 min
[14] = Stability in human plasma measured after 120 mins by LC-MS/MS analysis; assay type: ADME, cell-free; settings: read-out: Stability

Chain of CYP2D6 (P10635 whole entry): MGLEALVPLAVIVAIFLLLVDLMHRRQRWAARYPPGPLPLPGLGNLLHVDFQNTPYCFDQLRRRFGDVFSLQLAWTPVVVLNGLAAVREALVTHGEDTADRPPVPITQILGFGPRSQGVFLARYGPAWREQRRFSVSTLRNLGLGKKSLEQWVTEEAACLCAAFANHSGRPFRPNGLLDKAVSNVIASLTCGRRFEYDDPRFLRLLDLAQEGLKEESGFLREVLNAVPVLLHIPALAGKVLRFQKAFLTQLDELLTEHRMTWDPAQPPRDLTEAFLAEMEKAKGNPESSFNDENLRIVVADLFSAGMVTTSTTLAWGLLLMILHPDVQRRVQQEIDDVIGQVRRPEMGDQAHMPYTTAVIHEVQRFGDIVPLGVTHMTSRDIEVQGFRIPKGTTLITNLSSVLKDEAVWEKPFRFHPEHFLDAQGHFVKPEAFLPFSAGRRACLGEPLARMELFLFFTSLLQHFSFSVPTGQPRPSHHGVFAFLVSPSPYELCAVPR
Chain of CYP3A4 (P08684 whole entry): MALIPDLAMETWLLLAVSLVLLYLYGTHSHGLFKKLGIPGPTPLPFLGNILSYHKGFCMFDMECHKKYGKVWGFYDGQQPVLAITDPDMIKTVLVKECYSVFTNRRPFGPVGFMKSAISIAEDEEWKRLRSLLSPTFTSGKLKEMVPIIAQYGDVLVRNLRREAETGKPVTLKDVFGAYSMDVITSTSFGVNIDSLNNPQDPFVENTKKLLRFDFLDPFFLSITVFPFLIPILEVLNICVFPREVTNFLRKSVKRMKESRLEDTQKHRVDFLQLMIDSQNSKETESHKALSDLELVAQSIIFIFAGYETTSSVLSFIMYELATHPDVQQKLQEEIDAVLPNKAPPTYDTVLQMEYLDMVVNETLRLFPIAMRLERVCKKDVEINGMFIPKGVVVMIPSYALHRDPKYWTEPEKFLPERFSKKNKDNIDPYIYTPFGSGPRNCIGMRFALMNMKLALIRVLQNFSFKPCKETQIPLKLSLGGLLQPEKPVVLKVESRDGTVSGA
Chain of CYP2C19 (P33261 whole entry): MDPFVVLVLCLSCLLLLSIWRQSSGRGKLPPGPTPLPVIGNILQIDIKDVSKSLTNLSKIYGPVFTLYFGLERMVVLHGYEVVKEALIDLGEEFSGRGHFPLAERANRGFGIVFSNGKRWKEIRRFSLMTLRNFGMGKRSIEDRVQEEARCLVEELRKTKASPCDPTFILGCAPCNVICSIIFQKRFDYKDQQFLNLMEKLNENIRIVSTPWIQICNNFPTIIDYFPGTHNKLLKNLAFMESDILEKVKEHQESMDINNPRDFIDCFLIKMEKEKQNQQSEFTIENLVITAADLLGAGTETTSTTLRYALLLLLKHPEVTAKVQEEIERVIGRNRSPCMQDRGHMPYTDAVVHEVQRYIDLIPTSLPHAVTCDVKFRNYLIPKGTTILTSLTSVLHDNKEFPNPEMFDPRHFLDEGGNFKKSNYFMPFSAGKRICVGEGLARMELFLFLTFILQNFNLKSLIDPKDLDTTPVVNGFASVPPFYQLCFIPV
Chain of Voltage-gated inwardly rectifying potassium channel KCNH2 (Q12809 whole entry): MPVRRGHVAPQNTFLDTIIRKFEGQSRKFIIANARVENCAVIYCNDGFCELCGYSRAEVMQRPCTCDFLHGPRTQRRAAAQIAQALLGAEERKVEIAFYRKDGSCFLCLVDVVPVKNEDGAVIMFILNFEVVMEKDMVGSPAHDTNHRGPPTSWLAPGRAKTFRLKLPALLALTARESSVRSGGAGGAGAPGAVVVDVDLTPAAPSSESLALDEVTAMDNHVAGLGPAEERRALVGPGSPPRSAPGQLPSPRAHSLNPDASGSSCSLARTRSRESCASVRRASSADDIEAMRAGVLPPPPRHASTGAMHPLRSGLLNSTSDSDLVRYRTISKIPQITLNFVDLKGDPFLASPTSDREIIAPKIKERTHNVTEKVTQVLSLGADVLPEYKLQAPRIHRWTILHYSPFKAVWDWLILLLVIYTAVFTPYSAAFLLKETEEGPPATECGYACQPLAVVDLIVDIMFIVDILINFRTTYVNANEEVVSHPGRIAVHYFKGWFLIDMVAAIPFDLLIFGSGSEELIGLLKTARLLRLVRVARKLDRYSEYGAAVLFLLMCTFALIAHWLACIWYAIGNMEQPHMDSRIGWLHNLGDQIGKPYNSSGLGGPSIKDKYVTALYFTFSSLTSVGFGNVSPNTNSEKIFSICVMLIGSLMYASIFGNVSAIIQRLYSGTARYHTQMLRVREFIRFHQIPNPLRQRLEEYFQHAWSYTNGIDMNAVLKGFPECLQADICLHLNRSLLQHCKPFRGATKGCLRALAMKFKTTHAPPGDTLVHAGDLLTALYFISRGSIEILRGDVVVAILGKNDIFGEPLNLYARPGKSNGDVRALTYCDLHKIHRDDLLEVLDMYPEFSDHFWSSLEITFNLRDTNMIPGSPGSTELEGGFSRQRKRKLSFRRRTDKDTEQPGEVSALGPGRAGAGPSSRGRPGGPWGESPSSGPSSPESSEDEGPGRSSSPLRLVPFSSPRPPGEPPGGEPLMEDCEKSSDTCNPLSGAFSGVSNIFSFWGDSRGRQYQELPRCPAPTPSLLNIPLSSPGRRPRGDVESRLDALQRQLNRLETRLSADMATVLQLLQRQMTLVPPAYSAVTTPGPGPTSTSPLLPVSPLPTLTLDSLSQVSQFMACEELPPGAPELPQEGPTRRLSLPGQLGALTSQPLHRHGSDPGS
Chain of CYP2C9 (P11712 whole entry): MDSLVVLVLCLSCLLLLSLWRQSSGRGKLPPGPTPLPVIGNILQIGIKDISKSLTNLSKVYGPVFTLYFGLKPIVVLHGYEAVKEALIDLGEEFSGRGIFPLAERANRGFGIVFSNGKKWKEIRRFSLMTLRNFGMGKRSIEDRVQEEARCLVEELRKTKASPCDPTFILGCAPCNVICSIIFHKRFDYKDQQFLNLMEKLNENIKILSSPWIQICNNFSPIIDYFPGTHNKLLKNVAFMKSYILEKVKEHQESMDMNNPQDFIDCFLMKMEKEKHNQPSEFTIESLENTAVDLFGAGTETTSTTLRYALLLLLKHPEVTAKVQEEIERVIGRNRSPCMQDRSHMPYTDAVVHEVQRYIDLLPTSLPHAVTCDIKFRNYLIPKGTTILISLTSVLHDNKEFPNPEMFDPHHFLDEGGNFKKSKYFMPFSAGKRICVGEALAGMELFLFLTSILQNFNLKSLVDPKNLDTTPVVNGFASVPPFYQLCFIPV

remaining at 0.5 h, 1 µM [1]: 31%
remaining at 2 h [2]: > 100%
remaining at 2 h [4]: 93.1%
remaining at 0.5 h, 1 µM [5]: 15.5%
remaining at 0.5 h, 1 µM [6]: 26.5%
inhibition at 0.25 h, 10 µM [7]: 38.9%
inhibition at 0.25 h, 10 µM [8]: 56.9%
inhibition at 0.25 h, 10 µM [9]: > 100%
inhibition at 0.25 h, 10 µM [11]: 84%
inhibition [12]: 32.6%
inhibition at 0.25 h, 10 µM [13]: 86.2%
remaining at 2 h [14]: 96.3%
Compound: COc1ccccc1Nc1c(N[C@H]2CC[C@H](Oc3ccc(C#N)cc3)CC2)c(=O)c1=O
IC50 [3]: 493 nM
Activity [10]: 7.4%
